Literature values as cited in PubChem BioAssay AID1259409 (Chemical Carcinogenesis Research Information System (CCRIS), 2018).

Test system: rodent chemically induced tumor inhibition, incidence and multiplicity
Test: CCRIS tumor inhibitor studies
Settings: Promoter: NONE USED

N#CSCc1ccccc1
tumour outcome (control, treated, inhibition, significance) (Carcinogen: 7,12-DIMETHYLBENZ[A]ANTHRACENE, 57-97-6, Dose [Inhibitor]: 0, 25 PPM IN DIET BEGINNING 2 WK PRIOR TO CARCINOGEN DOSE AND CONTINUING FOR 1 WK POST CARCINOGEN DOSE (STUDY DURATION:, Route [Inhibitor]: ORAL, Species: RAT, Strain/Sex: SPRAGUE-DAWLEY/FEMALE, Target Tissue: Type of Lesion: MAMMARY GLAND: TUMOR, Dose [Carcinogen]: 10 MG IN 1 ML OLIVE OIL ONCE AT 7 WK OF AGE): 19/21 (91%), 19/21 (91%), 0%
tumour outcome (control, treated, inhibition, significance) (Carcinogen: 7,12-DIMETHYLBENZ[A]ANTHRACENE, 57-97-6, Dose [Inhibitor]: 0.03 NMOL/G DIET DAILY FOR 17 WK STARTING 1 WK PRIOR TO CARCINOGEN TREATMENT AND CONTINUING THROUGH THE END OF THE STUDY, Route [Inhibitor]: ORAL, Species: RAT, Strain/Sex: SPRAGUE-DAWLEY/FEMALE, Target Tissue: Type of Lesion: MAMMARY GLAND: TUMOR, Dose [Carcinogen]: 12 MG IN 1 ML OLIVE OIL ONCE): 79%, 8%, 90%, p<0.001
tumour outcome (control, treated, inhibition, significance) (Carcinogen: 7,12-DIMETHYLBENZ[A]ANTHRACENE, 57-97-6, Dose [Inhibitor]: 5.0 MG/G DIET AT AGE 9 WK SIMULTANEOUSLY WITH CARCINOGEN, 3/WK FOR 4 WK (STUDY DURATION: 20 WK), Route [Inhibitor]: ORAL, Species: MOUSE, Strain/Sex: ICR/FEMALE, Target Tissue: Type of Lesion: FORESTOMACH: TUMOR, Dose [Carcinogen]: 0.05 MG/G DIET AT AGE 9 WK, 3/WK FOR 4 WK): 87%, 80%, 8%, not significant
tumour outcome (control, treated, inhibition, significance) (Carcinogen: 7,12-DIMETHYLBENZ[A]ANTHRACENE, 57-97-6, Dose [Inhibitor]: 50 MG ONCE 2 HR BEFORE DMBA TREATMENT (STUDY DURATION: 18 WK), Route [Inhibitor]: INTRAGASTRIC, Species: RAT, Strain/Sex: SPRAGUE-DAWLEY/FEMALE, Target Tissue: Type of Lesion: MAMMARY GLAND: TUMOR, Dose [Carcinogen]: 12 MG IN 1 ML OLIVE OIL AT AGE 7 WK 2 HR AFTER AGENT TREATMENT): 77%, 55%, 28%, not significant
tumour outcome (control, treated, inhibition, significance) (Carcinogen: 7,12-DIMETHYLBENZ[A]ANTHRACENE, 57-97-6, Dose [Inhibitor]: 50 MG ONCE 4 HR BEFORE DMBA TREATMENT (STUDY DURATION: 18 WK), Route [Inhibitor]: INTRAGASTRIC, Species: RAT, Strain/Sex: SPRAGUE-DAWLEY/FEMALE, Target Tissue: Type of Lesion: MAMMARY GLAND: TUMOR, Dose [Carcinogen]: 12 MG IN 1 ML OLIVE OIL AT AGE 7 WK 4 HR AFTER AGENT TREATMENT): 100%, 36%, 64%, p<0.001
tumour outcome (control, treated, inhibition, significance) (Carcinogen: BENZO[A]PYRENE, 50-32-8, Dose [Inhibitor]: 0, 0.045 UMOL/G DIET BEGINNING 1 WK PRIOR TO CARCINOGEN TREATMENT AND CONTINUING FOR 1 WK POST CARCINOGEN TREATMENT FOLL, Route [Inhibitor]: ORAL, Species: MOUSE, Strain/Sex: CD-1/FEMALE, Target Tissue: Type of Lesion: FORESTOMACH: PAPILLOMA, Dose [Carcinogen]: 1 MG IN 0.2 ML CORN OIL 2/WK FOR 4 WK): 85%, 84%, 1%, not significant
tumour outcome (control, treated, inhibition, significance) (Carcinogen: DIETHYLNITROSAMINE, 55-18-5, Dose [Inhibitor]: 0, 100 PPM IN DIET FOR DURATION OF STUDY BEGINNING 1 WK PRIOR TO CARCINOGEN DOSE (STUDY DURATION: 53 WK), Route [Inhibitor]: ORAL, Species: RAT, Strain/Sex: ACI/MALE, Target Tissue: Type of Lesion: LIVER: HEPATOCELLULAR ADENOMA, Dose [Carcinogen]: 200 MG/KG BW ONCE): 10/18 (55%), 6/16 (38%), 31%, not significant
tumour outcome (control, treated, inhibition, significance) (Carcinogen: DIETHYLNITROSAMINE, 55-18-5, Dose [Inhibitor]: 0, 100 PPM IN DIET FOR DURATION OF STUDY BEGINNING 1 WK PRIOR TO CARCINOGEN DOSE (STUDY DURATION: 53 WK), Route [Inhibitor]: ORAL, Species: RAT, Strain/Sex: ACI/MALE, Target Tissue: Type of Lesion: LIVER: HEPATOCELLULAR CARCINOMA, Dose [Carcinogen]: 200 MG/KG BW ONCE): 6/18 (33%), 2/16 (13%), 61%, not significant
tumour outcome (control, treated, inhibition, significance) (Carcinogen: METHYLAZOXYMETHANOL ACETATE, 592-62-1, Dose [Inhibitor]: 0, 100 PPM IN DIET FOR 4 WK BEGINNING 1 WK PRIOR TO CARCINOGEN TREATMENT (STUDY DURATION: 49 WK), Route [Inhibitor]: ORAL, Species: RAT, Strain/Sex: ACI/FEMALE, Target Tissue: Type of Lesion: COLON: CARCINOMA, Dose [Carcinogen]: 25 MG/KG BW 1/WK FOR 3 WK): 11/18 (61%), 10/12 (83%), -36%, not significant
tumour outcome (control, treated, inhibition, significance) (Carcinogen: METHYLAZOXYMETHANOL ACETATE, 592-62-1, Dose [Inhibitor]: 0, 100 PPM IN DIET FOR 4 WK BEGINNING 1 WK PRIOR TO CARCINOGEN TREATMENT (STUDY DURATION: 49 WK), Route [Inhibitor]: ORAL, Species: RAT, Strain/Sex: ACI/FEMALE, Target Tissue: Type of Lesion: SMALL INTESTINE: ADENOMA OR CARCINOMA, Dose [Carcinogen]: 25 MG/KG BW 1/WK FOR 3 WK): 11/18 (61%), 8/12 (67%), -10%, not significant
tumour outcome (control, treated, inhibition, significance) (Carcinogen: METHYLAZOXYMETHANOL ACETATE, 592-62-1, Dose [Inhibitor]: 0, 100 PPM IN DIET FOR 46 WK BEGINNING 1 WK POST CARCINOGEN TREATMENT (STUDY DURATION: 49 WK), Route [Inhibitor]: ORAL, Species: RAT, Strain/Sex: ACI/FEMALE, Target Tissue: Type of Lesion: COLON: ADENOMA OR CARCINOMA, Dose [Carcinogen]: 25 MG/KG BW 1/WK FOR 3 WK): 15/18 (83%), 18/19 (95%), -14%, not significant
tumour outcome (control, treated, inhibition, significance) (Carcinogen: METHYLAZOXYMETHANOL ACETATE, 592-62-1, Dose [Inhibitor]: 0, 100 PPM IN DIET FOR 46 WK BEGINNING 1 WK POST CARCINOGEN TREATMENT (STUDY DURATION: 49 WK), Route [Inhibitor]: ORAL, Species: RAT, Strain/Sex: ACI/FEMALE, Target Tissue: Type of Lesion: SMALL INTESTINE: ADENOMA OR CARCINOMA, Dose [Carcinogen]: 25 MG/KG BW 1/WK FOR 3 WK): 11/18 (61%), 8/19 (42%), 31%, not significant
tumour outcome (control, treated, inhibition, significance) (Carcinogen: METHYLAZOXYMETHANOL ACETATE, 592-62-1, Dose [Inhibitor]: 0, 400 PPM IN DIET FOR 4 WK BEGINNING 1 WK PRIOR TO CARCINOGEN TREATMENT (STUDY DURATION: 49 WK), Route [Inhibitor]: ORAL, Species: RAT, Strain/Sex: ACI/FEMALE, Target Tissue: Type of Lesion: COLON: ADENOMA OR CARCINOMA, Dose [Carcinogen]: 25 MG/KG BW 1/WK FOR 3 WK): 15/18 (83%), 17/21 (81%), 2%, not significant
tumour outcome (control, treated, inhibition, significance) (Carcinogen: METHYLAZOXYMETHANOL ACETATE, 592-62-1, Dose [Inhibitor]: 0, 400 PPM IN DIET FOR 4 WK BEGINNING 1 WK PRIOR TO CARCINOGEN TREATMENT (STUDY DURATION: 49 WK), Route [Inhibitor]: ORAL, Species: RAT, Strain/Sex: ACI/FEMALE, Target Tissue: Type of Lesion: SMALL INTESTINE: CARCINOMA, Dose [Carcinogen]: 25 MG/KG BW 1/WK FOR 3 WK): 10/18 (56%), 1/21 (5%), 91%, not calculated
tumour outcome (control, treated, inhibition, significance) (Carcinogen: METHYLAZOXYMETHANOL ACETATE, 592-62-1, Dose [Inhibitor]: 0, 400 PPM IN DIET FOR 46 WK BEGINNING 1 WK POST CARCINOGEN TREATMENT (STUDY DURATION: 49 WK), Route [Inhibitor]: ORAL, Species: RAT, Strain/Sex: ACI/FEMALE, Target Tissue: Type of Lesion: COLON: ADENOMA OR CARCINOMA, Dose [Carcinogen]: 25 MG/KG BW 1/WK FOR 3 WK): 15/18 (83%), 13/18 (72%), 13%, not significant
tumour outcome (control, treated, inhibition, significance) (Carcinogen: METHYLAZOXYMETHANOL ACETATE, 592-62-1, Dose [Inhibitor]: 0, 400 PPM IN DIET FOR 46 WK BEGINNING 1 WK POST CARCINOGEN TREATMENT (STUDY DURATION: 49 WK), Route [Inhibitor]: ORAL, Species: RAT, Strain/Sex: ACI/FEMALE, Target Tissue: Type of Lesion: SMALL INTESTINE: ADENOMA OR CARCINOMA, Dose [Carcinogen]: 25 MG/KG BW 1/WK FOR 3 WK): 11/18 (61%), 3/18 (17%), 72%, p<0.01
